Reference: ChEMBL document CHEMBL1201862, “PubChem BioAssay data set” (2004)
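Compound exposure: 48 hours, 5 concentrations, 96-well plates. Abbreviation: GI50, concentration required for 50% inhibition of growth.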 The source made the active and inactive calls. Rule as the data show it: active = GI50 up to about 1.1 µM and inactive = higher.

Legend:
Assay in all cases: inhibition of tumour cell growth, NCI panel, 48 h
786-0 = system: 786-0
A549 = system: A549
ACHN = system: ACHN
CAKI-1 = system: CAKI-1
CCRF-CEM = system: CCRF-CEM
COLO 205 = system: COLO 205
DLD-1 = system: DLD-1
DMS-114 = system: DMS-114
DMS-273 = system: DMS-273
EKVX = system: EKVX
HCC 2998 = system: HCC 2998
HCT-116 = system: HCT-116
HCT-15 = system: HCT-15
HL-60 = system: HL-60
HOP-18 = system: HOP-18
HOP-62 = system: HOP-62
HT-29 = system: HT-29
IGROV-1 = system: IGROV-1
K562 = system: K562
KM-20L2 = system: KM-20L2
KM12 = system: KM12
LOX IMVI = system: LOX IMVI
LXFL 529 = system: LXFL 529
M14 = system: M14
M19-MEL = system: M19-MEL
MOLT-4 = system: MOLT-4
Malme-3M = system: Malme-3M
NCI-H226 = system: NCI-H226
NCI-H23 = system: NCI-H23
NCI-H460 = system: NCI-H460
NCI-H522 = system: NCI-H522
OVCAR-3 = system: OVCAR-3
OVCAR-4 = system: OVCAR-4
OVCAR-5 = system: OVCAR-5
OVCAR-8 = system: OVCAR-8
RPMI-8226 = system: RPMI-8226
RXF 393 = system: RXF 393
RXF 631 = system: RXF 631
SF-268 = system: SF-268
SF-295 = system: SF-295
SF-539 = system: SF-539
SK-MEL-28 = system: SK-MEL-28
SK-MEL-2 = system: SK-MEL-2
SK-OV-3 = system: SK-OV-3
SN12C = system: SN12C
SNB-19 = system: SNB-19
SR = system: SR
SW-620 = system: SW-620
TK-10 = system: TK-10
U-251 = system: U-251
UACC-257 = system: UACC-257
UACC-62 = system: UACC-62
UO-31 = system: UO-31
XF498 = system: XF498
A498 = system: A498
BT-549 = system: BT-549
DU-145 = system: DU-145
HOP-92 = system: HOP-92
Hs-578T = system: Hs-578T
MCF7 = system: MCF7
MDA-MB-231 = system: MDA-MB-231
MDA-MB-435 = system: MDA-MB-435
MDA-N = system: MDA-N
PC-3 = system: PC-3
SK-MEL-5 = system: SK-MEL-5
SNB-75 = system: SNB-75
SNB-78 = system: SNB-78
T47D = system: T47D

Measured: GI50

COc1ccc(/C=C/C(=O)c2sc(-n3nc(-c4ccccc4)cc3-c3ccccc3)nc2C)cc1OC
32400 nM: HCT-15
inactive: 786-0 36400 nM | A549 39400 nM | ACHN 49800 nM | CAKI-1 54200 nM | CCRF-CEM 23200 nM | COLO 205 36600 nM | DLD-1 21800 nM | DMS-114 28100 nM | DMS-273 36600 nM | EKVX 26100 nM | HCC 2998 51100 nM | HCT-116 31300 nM | HL-60 25200 nM | HOP-18 > 100000 nM | HOP-62 57100 nM | HT-29 30100 nM | IGROV-1 24300 nM | K562 23600 nM | KM-20L2 20900 nM | KM12 28100 nM | LOX IMVI 28900 nM | LXFL 529 30300 nM | M14 62800 nM | M19-MEL 42400 nM | MOLT-4 20300 nM | Malme-3M 65800 nM | NCI-H226 31600 nM | NCI-H23 34900 nM | NCI-H460 56800 nM | NCI-H522 19500 nM | OVCAR-3 20600 nM | OVCAR-4 38500 nM | OVCAR-5 32100 nM | OVCAR-8 31400 nM | RPMI-8226 22100 nM | RXF 393 57100 nM | RXF 631 24500 nM | SF-268 27400 nM | SF-295 28100 nM | SF-539 26700 nM | SK-MEL-28 37900 nM | SK-MEL-2 62100 nM | SK-OV-3 > 100000 nM | SN12C 31600 nM | SNB-19 36600 nM | SR 24900 nM | SW-620 43800 nM | TK-10 62500 nM | U-251 28800 nM | UACC-257 39500 nM | UACC-62 13900 nM | UO-31 42000 nM | XF498 49300 nM

O=C1c2c(O)cccc2C(C(=O)CCCC(=O)C2c3cccc(O)c3C(=O)c3c(O)cccc32)c2cccc(O)c21
259 nM: HCT-15
inactive: 786-0 2730 nM | CAKI-1 1270 nM | KM-20L2 1190 nM
active: A498 957 nM | A549 393 nM | ACHN 378 nM | BT-549 524 nM | CCRF-CEM 202 nM | COLO 205 340 nM | DLD-1 388 nM | DMS-114 116 nM | DMS-273 437 nM | DU-145 519 nM | EKVX 608 nM | HCC 2998 278 nM | HCT-116 220 nM | HL-60 82.4 nM | HOP-18 378 nM | HOP-62 612 nM | HOP-92 217 nM | HT-29 746 nM | Hs-578T 66.5 nM | IGROV-1 415 nM | K562 110 nM | KM12 242 nM | LOX IMVI 194 nM | LXFL 529 139 nM | M14 368 nM | M19-MEL 151 nM | MCF7 598 nM | MDA-MB-231 82.2 nM | MDA-MB-435 746 nM | MDA-N 442 nM | MOLT-4 966 nM | Malme-3M 789 nM | NCI-H226 456 nM | NCI-H23 270 nM | NCI-H460 80.3 nM | NCI-H522 158 nM | OVCAR-3 158 nM | OVCAR-4 86.7 nM | OVCAR-5 469 nM | OVCAR-8 492 nM | PC-3 78.7 nM | RPMI-8226 67.9 nM | RXF 631 578 nM | SF-268 248 nM | SF-295 243 nM | SF-539 179 nM | SK-MEL-28 538 nM | SK-MEL-2 322 nM | SK-MEL-5 259 nM | SK-OV-3 353 nM | SN12C 643 nM | SNB-19 290 nM | SNB-75 448 nM | SNB-78 213 nM | SR 321 nM | SW-620 244 nM | T47D 279 nM | TK-10 547 nM | U-251 212 nM | UACC-257 191 nM | UACC-62 327 nM | UO-31 417 nM | XF498 75.2 nM
